{"source": "patent US10485741B2", "about": "(WONKWANG UNIVERSITY CENTER FOR INDUSTRY-ACADEMY COOPERATION, priority 2016, dated 2019)", "format_in_all_cases": "cell-based, Streptococcus mutans", "key": {"S. mutans [1]": {"system": "S. mutans", "assay": "Minimum inhibitory concentration (MIC) and minimal bactericidal concentration (MBC), 96-well BHI broth dilution", "details": "Streptococcus mutans", "experimental": "The minimum inhibitory concentration and minimal bactericidal concentration of antibacterial substances were identified using S. mutans, which is related to dental caries, as the strain. Specifically, in order to measure MIC, a 96-well plate containing 100 μL of BHI broth per well was used. Antibacterial substances were used at a concentration of 16 mM, and the substance No. 1-2 of Example 1 was used at a concentration of 1 mM. The antibacterial materials were transferred to the first well and diluted stepwise. The substance No. 1-2 was diluted to 1 mM to 0.004375 mM and the other antibacterial substances were diluted to 16 mM to 0.007 mM. S. mutans was activated using BHI broth as the medium and cultured in a CO2 incubator at 37° C. for 24 hours. Then, the bacteria were cultured for another 6 hours, and then 100 μL thereof was added to each well of the 96-well plate. After 24-hour culture, the minimum inhibitory concentration was determined by measuring the absorbance at 600 nm with Enzyme-linked immuno-assay reader (Spectra MAX250, Molecular Devices Co.)."}, "S. mutans (ATCC 25175)": {"system": "S. mutans (ATCC 25175)", "assay": "Agar diffusion test (paper disc), antibacterial substance alone", "experimental": "Specifically, S. mutans was primarily cultured in a BHI medium in a CO2 incubator at 37°C. for 24 hours. Then, 200 μL of a suspension of S. mutans was inoculated into BHI and secondarily cultured for 6 hours. Then, the OD value was measured with Eppendorf Biophotometer plus. After the measurement, the bacteria were mixed with top agar and then inoculated into the agar medium containing base agar. After top agar hardened, a 6 mm diameter paper disc was placed on the agar medium. 5 μL of each of 0.1 mM, 1 mM and 10 mM antibacterial substances was dropped on the paper disc. 10 μL/ml of ampicilin was used as the positive control, and PBS was used as the negative control. After culturing in a CO2 incubator at 37°C for 24 hours, the diameter of the S. mutans inhibition zone formed around the paper disc was measured in two perpendicular locations and the average was calculated to evaluate the antibacterial activities. The average was expressed in mm."}, "S. mutans [2]": {"system": "S. mutans", "assay": "Agar diffusion test of fluoride varnish of hydrogenated rosin mixed with antibacterial substance, inhibition zone", "details": "for Inhibition zone, Fluoride varnish + 1 mM substance / Inhibition zone, Fluoride varnish + 10 mM substance: substance mixed 1:1 with fluoride varnish, positive control = ampicillin alone", "experimental": "Antibacterial substance powders were dissolved in DMSO to 100 mM and stored. It was diluted with DMSO to prepare 20 mM and 2 mM antibacterial substances.\nSpecifically, S. mutans was primarily cultured in a BHI medium in a CO2 incubator at 37°C. for 24 hours. Then, 200 μL of a suspension of S. mutans was inoculated into BHI and secondarily cultured for 6 hours. Then, the OD value was measured with Eppendorf Biophotometer plus. After the measurement, the bacteria were mixed with top agar and then inoculated into the agar medium containing base agar. After top agar hardened, a 6 mm diameter paper disc was placed on the agar medium.\n5 μL of each of 0.1 mM, 1 mM and 10 mM antibacterial substances was dropped on the paper disc. 10 μL/ml of ampicilin was used as the positive control, and PBS was used as the negative control. After culturing in a CO2 incubator at 37°C for 24 hours, the diameter of the S. mutans inhibition zone formed around the paper disc was measured in two perpendicular locations and the average was calculated to evaluate the antibacterial activities. The average was expressed in mm.\nFluoride varnishes mixed with an antibacterial substance which comprise an antibacterial substance tested in Test Example 1 were prepared according to the method described in Example 2 and the antibacterial activities thereof were tested."}, "S. mutans [3]": {"system": "S. mutans", "assay": "Formation of Semi-inhibition zone by fluoride varnish mixed with antibacterial substance (agar diffusion)", "details": "Table 4; substance mixed 1:1 with fluoride varnish; positive control = ampicillin alone", "text": "In addition, the formation of Semi-inhibition zone was investigated according to the same method as in Test Example 1."}}}
{"smiles": "CC1(C)C=Cc2cc(C(=O)/C=C/c3ccc(O)cc3)c(O)cc2O1", "note": "[No. 5, Bavachromene]", "values": [{"measurement": "MIC", "setting": "S. mutans [1]; 24 h, BHI broth, 24-hour culture, absorbance at 600 nm, read-out: MIC", "result": 31, "unit": "µM"}, {"measurement": "MBC", "setting": "S. mutans [1]; read-out: MBC", "result": 125, "unit": "µM"}, {"measurement": "antibacterial activities against S. mutans in all conditions (in words)", "setting": "S. mutans (ATCC 25175); 10 mM, 1 mM and 0.1 mM", "result": "significant antibacterial activities"}, {"measurement": "diameter of the S. mutans inhibition zone, 0.1 mM antibacterial substance alone", "setting": "S. mutans (ATCC 25175); 5 μL of 0.1 mM substance on 6 mm paper disc, 24 h, positive control 10 μL/ml ampicillin", "result": 6, "unit": "mm"}, {"measurement": "diameter of the S. mutans inhibition zone, 1 mM antibacterial substance alone", "setting": "S. mutans (ATCC 25175); 5 μL of 1 mM substance on 6 mm paper disc, 24 h, positive control 10 μL/ml ampicillin", "result": 8.75, "unit": "mm"}, {"measurement": "diameter of the S. mutans inhibition zone, 10 mM antibacterial substance alone", "setting": "S. mutans (ATCC 25175); 5 μL of 10 mM substance on 6 mm paper disc, 24 h, positive control 10 μL/ml ampicillin", "result": 9.74, "unit": "mm"}, {"measurement": "antibacterial activities against S. mutans (in words)", "setting": "S. mutans (ATCC 25175); screening from a total 100 substances", "result": "significant antibacterial activities"}, {"measurement": "Inhibition zone, Fluoride varnish + 1 mM substance", "setting": "S. mutans [2]; primary test (Table 2)", "result": 10.27, "unit": "mm"}, {"measurement": "Inhibition zone, Fluoride varnish + 10 mM substance", "setting": "S. mutans [2]; primary test (Table 2)", "result": 10.60, "unit": "mm"}, {"measurement": "antibacterial activities of fluoride varnish mixed with substance compared with a fluoride varnish alone (in words)", "setting": "S. mutans [2]; primary test, 1 mM or 10 mM antibacterial substance", "result": "significant antibacterial activities"}, {"measurement": "Inhibition zone, Fluoride varnish + 1 mM substance", "setting": "S. mutans [2]; secondary test (Table 3)", "result": 8.66, "unit": "mm"}, {"measurement": "Inhibition zone, Fluoride varnish + 10 mM substance", "setting": "S. mutans [2]; secondary test (Table 3)", "result": 10.48, "unit": "mm"}, {"measurement": "Semi-inhibition zone, Fluoride varnish + 1 mM substance", "setting": "S. mutans [3]", "result": 20.79, "unit": "mm"}, {"measurement": "Semi-inhibition zone, Fluoride varnish + 10 mM substance", "setting": "S. mutans [3]", "result": 25.235, "unit": "mm"}]}
